Test system: LM2 and MDA-MB-231 breast cancer cell lines
Test: PAICS 2D cell proliferation assay (CellTiter-Glo viability, 72 h)
Type: cell-based
Conditions: Homo sapiens; 72 h incubation; cell line not given
Description: PAICS 2D Cell Proliferation Assay
Frozen cryovial stocks of LM2 and MDA-MB-231 breast cancer cell lines were thawed and cultured in 4.5 g/L glucose DMEM (31966-047, Invitrogen) supplemented with 10% Fetal Bovine Serum (10500-064, Invitrogen) until confluent in a T175 flask. Cells were incubated at 37° C. with 5% CO2 in a humidified incubator.
Cells were collected from T175 flasks by washing with PBS (10010-056, Invitrogen) and dissociated using Accutase (A6964, Sigma Aldrich). This was followed by centrifuging (1200 rpm, 5 min) and resuspending the cells in 10 ml of media containing 1% penicillin/streptomycin (15140-122, Invitrogen). Cells were counted by trypan blue exclusion method using an automated cell counter (Cellometer) and diluted to a concentration of 40,000/ml. 1000 cells were then seeded into 384-well white-walled plates (Corning, 3707) in a volume of 25 μl. Plates were Incubated overnight at 37° C. with 5% CO2.
After 24 hours, PAICS compounds were added onto the assay plates using an HP D300 Digital Dispenser (Hewlett Packard). 10 mM stocks were used and dispensed as a 10 point concentration response curve (CRC) ½ log dilution series with a final top concentration of 100 μM. Controls were added onto each plate: positive controls included Staurosporine CRC (100 μM stock dispensed as a 10 point CRC ½ log dilution series with a final top concentration of 1 μM) and PAICS compound MRT00211919 (10 mM stock dispensed as a 10 point CRC ½ log dilution series with a final top concentration of 100 μM); a high control of Staurosporine (0.1 μM (LM2), 0.316 μM (MDA-MB-231) FAC) and a low control of media containing 1% DMSO. A final concentration of 1% DMSO was then added across the plates for normalisation. Following compound addition, assay plates were incubated for 72 hours at 37° C. with 5% CO2.
Day 5—Cytotoxicity and Cell Viability Assays
After 72 h incubation, dead and viable cells were measured in each assay plate. Cytotoxicity was assessed through fluorescent DNA staining using the CellTox™ Green Cytotoxicity Assay kit (G8743, Promega) following the manufacturer's multiplexing protocol. Impaired cell membrane integrity results in the access of dye to stain DNA allowing quantification of dead cells. Cell viability was determined following ATP quantification using the CellTiter-Glo® Luminescent Cell Viability Assay kit (G7572, Promega) following the manufacturer's protocol. ATP released from lysed cells allowed for the generation of a signal proportional to the number of cells present in the well. All endpoint reads were performed using the PheraSTAR Plus (BMG Labtech). Data is expressed as % viable cells and % dead cells against controls (mean±SEM of duplicate curves).

Row | SMILES | EC50 [nM]
1 | CSc1ccc(N2CCN(C(=O)OCCCN(C)C)CC2)cc1NC(=O)c1coc(N)n1 [Example 26, 3-(Dimethylamino)propyl-4-[3-{[(2-amino-1,3-oxazol-4-yl)carbonyl]amino}-4-(methylsulfanyl)phenyl]piperazine-1-carboxylate] | 500 to 1000
2 | CSc1ccc(N2CCN(C(=O)OCCN(C)C)CC2)cc1NC(=O)c1coc(N)n1 [Example 27, 2-(Dimethylamino)ethyl 4-[3-{[(2-amino-1,3-oxazol-4-yl)carbonyl]amino}-4-(methylsulfanyl)phenyl]piperazine-1-carboxylate] | 500 to 1000
3 | CC(CN1CCCC1)CS(=O)(=O)N1CCN(c2ccc(Br)c(NC(=O)c3coc(N)n3)c2)CC1 (stereo not shown) [Example 71, 2-Amino-N-[2-bromo-5-(4-{[2-methyl-3-(pyrrolidin-1-yl)propyl]sulfonyl}piperazin-1-yl)phenyl]-1,3-oxazole-4-carboxamide] | < 100
4 | CCNCC(C)CS(=O)(=O)N1CCN(c2ccc(Br)c(NC(=O)c3coc(N)n3)c2)CC1 (stereo not shown) [Example 79, 2-Amino-N-[2-bromo-5-(4-{[3-(ethylamino)-2-methylpropyl]sulfonyl}piperazin-1-yl)phenyl]-1,3-oxazole-4-carboxamide] | < 100
5 | CCN(CC)CC(C)CS(=O)(=O)N1CCN(c2ccc(Br)c(NC(=O)c3coc(N)n3)c2)CC1 (stereo not shown) [Example 81, 2-Amino-N-[2-bromo-5-(4-{[3-(diethylamino)-2-methylpropyl]sulfonyl}piperazin-1-yl)phenyl]-1,3-oxazole-4-carboxamide] | 100 to 250
6 | CC(CN(C)C)CS(=O)(=O)N1CCN(c2ccc(Br)c(NC(=O)c3coc(N)n3)c2)CC1 (stereo not shown) [Example 82, 2-Amino-N-[2-bromo-5-(4-{[3-(dimethylamino)-2-methylpropyl]sulfonyl}piperazin-1-yl)phenyl]-1,3-oxazole-4-carboxamide] | 100 to 250

Continued, values first:

Row | EC50 [nM] | SMILES
7 | < 100 | CNCC(C)CS(=O)(=O)N1CCN(c2ccc(Br)c(NC(=O)c3coc(N)n3)c2)CC1 (stereo not shown) [Example 78, 2-Amino-N-[2-bromo-5-(4-{[2-methyl-3-(methylamino)propyl]sulfonyl}piperazin-1-yl)phenyl]-1,3-oxazole-4-carboxamide]
8 | < 100 | CC(CNC(C)C)CS(=O)(=O)N1CCN(c2ccc(Br)c(NC(=O)c3coc(N)n3)c2)CC1 (stereo not shown) [Example 80, 2-Amino-N-[2-bromo-5-(4-{[2-methyl-3-(propan-2-ylamino)propyl]sulfonyl}piperazin-1-yl)phenyl]-1,3-oxazole-4-carboxamide]
9 | 100 to 250 | Nc1nc(C(=O)Nc2cc(N3CCN(S(=O)(=O)C4CCNC4)CC3)ccc2Br)co1 (stereo not shown) [Example 88, 2-Amino-N-{2-bromo-5-[4-(pyrrolidin-3-ylsulfonyl)piperazin-1-yl]phenyl}-1,3-oxazole-4-carboxamide]
10 | 100 to 250 | CN1CCC(S(=O)(=O)N2CCN(c3ccc(Br)c(NC(=O)c4coc(N)n4)c3)CC2)C1 (stereo not shown) [Example 89, 2-Amino-N-(2-bromo-5-{4-[(1-methylpyrrolidin-3-yl)sulfonyl]piperazin-1 yl}phenyl)-1,3-oxazole-4-carboxamide]
